From the supplement of paper PMC10307832

Columns and labels:
Test in all cases: relative viability (nuclei count vs DMSO), 5 days (fraction); higher = more cells survive
[1] = compound: CC1=CC=C(C=C1)C(=O)CN2C3=C(CCCC3)SC2=N [Pifithrin_alpha] + CC(=O)c1c(C)c2cnc(Nc3ccc(N4CCNCC4)cn3)nc2n(C2CCCC2)c1=O [Palbociclib] (partner 0.5 µM)
Summary of the method: (§1)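 Relative viability divides the nuclei count in treated wells by that in vehicle wells. Lung cancer cell lines were seeded in 1536-well plates, dosed by pin tool the next day, and fixed and stained after 5 days in one step with final 0.05% Triton X-100, 1% formaldehyde and 1 ug/ml Hoechst. Dosing was a single drug or a fixed anchor-drug dose plus five library-drug doses (not always all listed) in √10 steps, and values are medians of duplicate plates imaged at 4×.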

[2] = compound: CC1=CC=C(C=C1)C(=O)CN2C3=C(CCCC3)SC2=N [Pifithrin_alpha] + Cc1nc(Nc2ncc(C(=O)Nc3c(C)cccc3Cl)s2)cc(N2CCN(CCO)CC2)n1 [Dasatinib] (partner 0.075 µM)
Summary of the method: as §1

[3] = compound: CNC(=O)c1ccccc1Sc1ccc2c(/C=C/c3ccccn3)n[nH]c2c1 [Axitinib] + COc1cccc2cc(-c3nc([C@H]4CC[C@H](C(=O)O)CC4)n4ncnc(N)c34)[nH]c12 [OSI-027] (partner 0.5 µM)
Summary of the method: as §1

[4] = compound: CNC(=O)c1ccccc1Sc1ccc2c(/C=C/c3ccccn3)n[nH]c2c1 [Axitinib] + NC(=O)Nc1cc(-c2cccc(F)c2)sc1C(=O)N[C@H]1CCCNC1 [AZD7762] (partner 0.2 µM)
Summary of the method: as §1

Row | Cell Line | relative viability ([1]; first compound 1 µM) | relative viability ([1]; first compound 3.162 µM) | relative viability ([1]; first compound 10 µM) | relative viability ([1]; first compound 31.62 µM) | relative viability ([1]; first compound 100 µM) | relative viability ([2]; first compound 1 µM) | relative viability ([2]; first compound 3.162 µM) | relative viability ([2]; first compound 10 µM) | relative viability ([2]; first compound 31.62 µM) | relative viability ([2]; first compound 100 µM) | relative viability ([3]; first compound 0.005 µM) | relative viability ([3]; first compound 0.01581 µM) | relative viability ([3]; first compound 0.05 µM) | relative viability ([3]; first compound 0.1581 µM) | relative viability ([3]; first compound 0.5 µM) | relative viability ([4]; first compound 0.005 µM) | relative viability ([4]; first compound 0.01581 µM) | relative viability ([4]; first compound 0.05 µM) | relative viability ([4]; first compound 0.1581 µM) | relative viability ([4]; first compound 0.5 µM)
1 | NCI-H2170 | 0.369 | 0.396 | 0.35 | 0.312 | 0.452 | 0.68 | 0.467 | 0.512 | 0.39 | 0.404 | 0.721 | 0.686 | 0.703 | 0.715 | 0.631 | 1.13 | 0.958 | 0.948 | 0.792 | 0.87
2 | NCI-H2342 | 0.516 | 0.494 | 0.493 | 0.53 | 0.501 | 0.255 | 0.316 | 0.317 | 0.31 | 0.31 | 0.571 | 0.614 | 0.663 | 0.633 | 0.638 | 0.554 | 0.437 | 0.688 | 0.513 | 0.429
3 | NCI-H2347 | 0.468 | 0.415 | 0.442 | 0.386 | 0.365 | 0.273 | 0.309 | 0.301 | 0.333 | 0.291 | 0.482 | 0.407 | 0.422 | 0.423 | 0.51 | 0.828 | 0.763 | 0.792 | 0.723 | 0.873
4 | NCI-H2405 | – | 0.508 | 0.511 | 0.433 | 0.503 | 0.156 | 0.197 | 0.205 | 0.188 | 0.196 | 0.654 | 0.666 | 0.675 | 0.643 | 0.722 | 0.73 | 0.808 | 1.01 | 0.684 | 0.856
5 | NCI-H3122 | 0.175 | 0.211 | 0.193 | 0.146 | 0.195 | 0.82 | 0.901 | 0.732 | – | 0.758 | 0.959 | 0.946 | 1.01 | 0.709 | 1.02 | 0.976 | 0.991 | 0.892 | 0.92 | 1.04
6 | PC-3 [JPC-3] | – | 0.519 | – | 0.455 | 0.458 | 0.971 | 0.928 | 0.671 | 0.933 | 0.917 | 0.762 | 0.668 | 0.809 | 0.72 | 0.915 | 0.835 | – | 0.933 | 0.765 | 0.781
7 | PC-14 | 0.651 | 0.513 | 0.515 | 0.191 | 0.134 | 0.207 | 0.166 | 0.134 | 0.0654 | 0.0425 | 0.916 | 0.717 | 0.975 | 0.82 | 1.41 | 0.306 | – | 0.346 | 0.382 | 0.413
8 | RERF-LC-KJ | 0.91 | 0.974 | 0.886 | 0.66 | 0.635 | 0.721 | 0.633 | 0.737 | 0.411 | 0.521 | 0.701 | 0.529 | 0.553 | 0.503 | 0.61 | 1 | 0.916 | 1.21 | 0.977 | 1.01
9 | SW 900 | 0.58 | 0.513 | 0.453 | 0.388 | 0.526 | 0.366 | 0.487 | 0.318 | 0.349 | 0.307 | 0.646 | 0.536 | 0.562 | 0.564 | 0.699 | 0.52 | – | 0.562 | 0.579 | 0.66
